According to patent US4617308A, “7-substituted amino-1-aryl-6,8-difluoro-1,4-dihydro-4-oxo-3-quinolinecarboxylic acids and derivatives thereof as antibacterial agents” (Warner-Lambert Company, priority 1985, dated 1986):
≈ marks a conversion by molar mass, not a printed value.

Tests used:
Test in all cases: In vitro antibacterial activity, microtitration dilution method
Format in all cases: cell-based
[1] = tested on: Enterobacter cloacae MA 2646; conditions: MA2646, read-out: Minimal Inhibitory Concentration MIC
Description: (§1) The compounds of the invention display anti-bacterial activity when tested by the microtitration dilution method as described in Heifetz, et al, Antimicr. Agents & Chemoth., 6, 124 (1974), which is incorporated herein by reference and illustrated in the following table.

Escherichia coli Vogel = conditions: read-out: Minimal Inhibitory Concentration MIC
Description: as §1

[2] = tested on: Klebsiella pneumoniae MGH-2; conditions: MGH2, read-out: Minimal Inhibitory Concentration MIC
Description: as §1

Proteus rettgeri M 1771 = conditions: Providencia rettgeri, M1771, read-out: Minimal Inhibitory Concentration MIC
Description: as §1

[3] = tested on: Pseudomonas aeruginosa UI-18; conditions: UI18, read-out: Minimal Inhibitory Concentration MIC
Description: as §1

[4] = tested on: Staphylococcus aureus H 228; conditions: H228, read-out: Minimal Inhibitory Concentration MIC
Description: as §1

[5] = tested on: Staphylococcus aureus UC-76; conditions: UC76, read-out: Minimal Inhibitory Concentration MIC
Description: as §1

[6] = tested on: Streptococcus faecalis MGH-2; conditions: Enterococcus faecalis, MGH2, read-out: Minimal Inhibitory Concentration MIC
Description: as §1

[7] = tested on: Streptococcus pneumoniae SV-1; conditions: SV1, read-out: Minimal Inhibitory Concentration MIC
Description: as §1

[8] = tested on: Streptococcus pyogenes C-203; conditions: C203, read-out: Minimal Inhibitory Concentration MIC
Description: as §1

MIC [1] [µg/mL]	MIC (Escherichia coli Vogel) [µg/mL]	MIC [2] [µg/mL]	MIC (Proteus rettgeri M 1771) [µg/mL]	MIC [3] [µg/mL]	MIC [4] [µg/mL]	MIC [5] [µg/mL]	MIC [6] [µg/mL]	MIC [7] [µg/mL]	MIC [8] [µg/mL]	SMILES
1.6 (≈ 3.74 µM)	1.6 (≈ 3.74 µM)	1.6 (≈ 3.74 µM)	6.3 (≈ 14.7 µM)	6.3 (≈ 14.7 µM)	0.8 (≈ 1.87 µM)	0.2 (≈ 0.468 µM)	0.8 (≈ 1.87 µM)	1.6 (≈ 3.74 µM)	1.6 (≈ 3.74 µM)	CCNCC1CCN(c2c(F)cc3c(=O)c(C(=O)O)cn(-c4ccccc4)c3c2F)C1 (stereo not drawn) [Ex. 3, 7-[3-[(Ethylamino)methyl]-1-pyrrolidinyl]-6,8-difluoro-1,4-dihydro-4-oxo-1-phenyl-3-quinolinecarboxylic acid]
0.4 (≈ 1 µM)	0.2 (≈ 0.501 µM)	0.8 (≈ 2 µM)	1.6 (≈ 4.01 µM)	1.6 (≈ 4.01 µM)	0.2 (≈ 0.501 µM)	0.1 (≈ 0.25 µM)	0.2 (≈ 0.501 µM)	0.2 (≈ 0.501 µM)	0.2 (≈ 0.501 µM)	NCC1CCN(c2c(F)cc3c(=O)c(C(=O)O)cn(-c4ccccc4)c3c2F)C1 (stereo not drawn) [Ex. 4, 7-[3-(Aminomethyl)-1-pyrrolidinyl]-6,8-difluoro-1,4-dihydro-4-oxo-1-phenyl-3-quinoline carboxylic acid]
0.8 (≈ 1.8 µM)	0.8 (≈ 1.8 µM)	1.6 (≈ 3.59 µM)	1.6 (≈ 3.59 µM)	1.6 (≈ 3.59 µM)	0.1 (≈ 0.224 µM)	0.2 (≈ 0.449 µM)	0.2 (≈ 0.449 µM)	0.4 (≈ 0.898 µM)	0.4 (≈ 0.898 µM)	CCNCC1CCN(c2c(F)cc3c(=O)c(C(=O)O)cn(-c4ccc(F)cc4)c3c2F)C1 (stereo not drawn) [Ex. 1]
